For assay [1], the system named is Escherichia coli. As to the kind of experiment: Antimicrobial activity against Escherichia coli assessed as zone of inhibition at 0.001 mol/cm3. Type of assay: functional.
Assay [2] concerns Staphylococcus aureus. In words: Antimicrobial activity against Staphylococcus aureus assessed as zone of inhibition at 0.001 mol/cm3. The format is functional.
Another assay concerns Bacillus cereus. As to the kind of experiment: Antimicrobial activity against Bacillus cereus assessed as zone of inhibition at 0.001 mol/cm3. The format is functional.
Assay [3] relates to Escherichia coli. As to the kind of experiment: Antimicrobial activity against Escherichia coli assessed as zone of inhibition at 10 ug/ml. As to conditions: read-out: IZ. Type of assay: functional.
In assay [4] the test system is Candida albicans. In words: Antifungal activity against Candida albicans assessed as zone of inhibition at 10 ug/ml. The format is functional. To be noted: read-out: IZ.
In assay [5] the test system is Bacillus subtilis. In words: Antimicrobial activity against Bacillus subtilis assessed as zone of inhibition at 10 ug/ml. The format is functional. To be noted: read-out: IZ.
The next assay deals with Lactococcus lactis. In words: Antimicrobial activity against Streptococcus lactis assessed as zone of inhibition at 10 ug/ml. As to conditions: read-out: IZ. The format is functional.
In another assay the test system is Pseudomonas. As to the kind of experiment: Antimicrobial activity against Pseudomonas assessed as zone of inhibition at 10 ug/ml. Type of assay: functional. To be noted: read-out: IZ.
The subject of a further assay is Streptomyces. In words: Antimicrobial activity against Streptomyces assessed as zone of inhibition at 10 ug/ml. Type of assay: functional. As to conditions: read-out: IZ.
Assay [6] deals with Aspergillus niger. In words: Antifungal activity against Aspergillus niger assessed as zone of inhibition at 10 ug/ml. The format is functional. As to conditions: read-out: IZ.
In the next assay the test system is Penicillium. As to the kind of experiment: Antifungal activity against Penicillium assessed as zone of inhibition at 10 ug/ml. To be noted: read-out: IZ. Type of assay: functional.
The nature of assay [7]: Antifungal activity against Rhodotorula ingeniosa assessed as zone of inhibition at 10 ug/ml. To be noted: Sampaiozyma ingeniosa; read-out: IZ. The format is functional.
For assay [8], the system named is Pseudomonas aeruginosa. As to the kind of experiment: Antimicrobial activity against Pseudomonas aeruginosa assessed as zone of inhibition at 5 mg/ml. As to conditions: read-out: IZ. Type of assay: functional.
Assay [9] deals with Staphylococcus aureus. In words: Antimicrobial activity against Staphylococcus aureus assessed as zone of inhibition at 5 mg/ml. Type of assay: functional. As to conditions: read-out: IZ.
Assay [10] deals with Klebsiella pneumoniae. In words: Antimicrobial activity against Klebsiella pneumoniae assessed as zone of inhibition at 5 mg/ml. Type of assay: functional. To be noted: read-out: IZ.
Assay [11] relates to Escherichia coli. As to the kind of experiment: Antimicrobial activity against Escherichia coli assessed as zone of inhibition at 5 mg/ml. The format is functional. As to conditions: read-out: IZ.
The test system of assay [12] is Bacillus subtilis. As to the kind of experiment: Antimicrobial activity against Bacillus subtilis. The format is functional.
For a further assay, the system named is Proteus vulgaris. In words: Antimicrobial activity against Proteus vulgaris. The format is functional.
For a further assay, the system named is Salmonella typhimurium. In words: Antimicrobial activity against Salmonella typhimurium. The format is functional, Salmonella enterica subsp. enterica serovar Typhimurium. To be noted: Salmonella enterica.
For the next assay, the system named is Streptococcus pneumoniae. In words: Antimicrobial activity against Streptococcus pneumoniae. Type of assay: functional.
Assay [13] relates to Proteus mirabilis. In words: Antimicrobial activity against Proteus mirabilis. The format is functional.
The subject of the next assay is Prescottella equi. As to the kind of experiment: Antimicrobial activity against Rhodococcus equi. The format is functional. To be noted: Rhodococcus (subgen. Prescottella) equi.
The test system of another assay is Bacillus thuringiensis. In words: Antimicrobial activity against Bacillus thuringiensis. The format is functional.
In assay [14] the test system is Escherichia coli. As to the kind of experiment: Antimicrobial activity against Escherichia coli after 24 hrs by agar disk diffusion method. Type of assay: functional. A general note: Agar diffusion results depend on both activity and mobility in agar.
Assay [15] relates to Pseudomonas aeruginosa. In words: Antimicrobial activity against Pseudomonas aeruginosa after 24 hrs by agar disk diffusion method. Type of assay: functional.
The test system of assay [16] is Klebsiella pneumoniae. In words: Antimicrobial activity against Klebsiella pneumoniae after 24 hrs by agar disk diffusion method. The format is functional.
Assay [17] has as its system Proteus mirabilis. As to the kind of experiment: Antimicrobial activity against Proteus mirabilis after 24 hrs by agar disk diffusion method. Type of assay: functional.
For assay [18], the system named is Staphylococcus aureus. In words: Antimicrobial activity against Staphylococcus aureus assessed as zone of inhibition at 5 mg/ml after 24 to 48 hrs by well diffusion method. Type of assay: functional. To be noted: read-out: IZ.
The test system of assay [19] is Bacillus subtilis. In words: Antimicrobial activity against Bacillus subtilis assessed as zone of inhibition at 5 mg/ml after 24 to 48 hrs by well diffusion method. Type of assay: functional. To be noted: read-out: IZ.
Assay [20] deals with Staphylococcus aureus. In words: Antimicrobial activity against Staphylococcus aureus ATCC 25923 assessed as zone of inhibition at 100 ug/ml after 24 hrs by disc diffusion method. The format is functional. As to conditions: ATCC 25923, 24 h, read-out: IZ.
Assay [21] concerns Escherichia coli. As to the kind of experiment: Antimicrobial activity against Escherichia coli. Type of assay: functional.
Assay [22] has as its system Pseudomonas aeruginosa. In words: Antimicrobial activity against Pseudomonas aeruginosa. The format is functional.
In assay [23] the test system is Staphylococcus aureus. As to the kind of experiment: Antimicrobial activity against Staphylococcus aureus. Type of assay: functional.
The subject of assay [24] is Pseudomonas aeruginosa. In words: Antimicrobial activity against Pseudomonas aeruginosa assessed as zone of inhibition at 5 mg/ml after 24 to 48 hrs by well diffusion method. The format is functional. To be noted: read-out: IZ.
Assay [25] deals with Escherichia coli. In words: Antimicrobial activity against Escherichia coli assessed as zone of inhibition at 5 mg/ml after 24 to 48 hrs by well diffusion method. The format is functional. As to conditions: read-out: IZ.
The test system of assay [26] is Bacillus subtilis. In words: Antimicrobial activity against Bacillus subtilis NCIM 2250 after 48 hrs by NCCLS protocol based method. Type of assay: functional. To be noted: NCIM 2250, 48 h.
Assay [27] relates to Escherichia coli. As to the kind of experiment: Antimicrobial activity against Escherichia coli ATCC 25922 after 48 hrs by NCCLS protocol based method. The format is functional. As to conditions: ATCC 25922, 48 h.
The test system of assay [28] is Aspergillus niger. In words: Antifungal activity against Aspergillus niger NCIM 545 after 48 hrs by NCCLS protocol based method. Type of assay: functional. As to conditions: NCIM 545, 48 h.
Assay [29] relates to Candida albicans. As to the kind of experiment: Antifungal activity against Candida albicans MTCC 277 after 48 hrs by NCCLS protocol based method. The format is functional. As to conditions: MTCC 277, 48 h.

In brackets after ≈: the same amount, converted by molar mass.

Regarding `Cc1c(C(=O)c2ccccc2)sc(-n2cnnn2)c1C(=O)O`, the “inhibition zone (IZ)” value in the assay on Escherichia coli [1], in the assay with Staphylococcus aureus [2] and in the assay on Bacillus cereus was 17 - 24 mm each time.

Regarding `CC(=O)OC[C@H]1O[C@H](n2nnnc2Cn2nnc3ccccc32)[C@H](OC(C)=O)[C@@H](OC(C)=O)[C@@H]1OC(C)=O`, the zone of inhibition at 10 µg/mL with Escherichia coli [3], in the assay on Candida albicans [4], in the assay on Bacillus subtilis [5], with Lactococcus lactis, with Pseudomonas and with Streptomyces was 15 to 17 mm throughout. Further, the zone of inhibition at 10 µg/mL (in the assay with Aspergillus niger [6]; in the assay on Penicillium; in assay [7]) was 15 to 17 mm in each case.

Consider `OC[C@H]1O[C@H](n2nnnc2Cn2nnc3ccccc32)[C@H](O)[C@@H](O)[C@@H]1O`, for which the zone of inhibition at 10 µg/mL in the assay with Escherichia coli [3], with Candida albicans [4], in the assay with Bacillus subtilis [5], in the assay on Lactococcus lactis, in the assay with Pseudomonas and in the assay on Streptomyces was 11 to 15 mm throughout. The zone of inhibition at 10 µg/mL (in the assay with Aspergillus niger [6]; in the assay on Penicillium; in assay [7]) was 11 to 15 mm in each case.

For the molecule `Cc1nc2ccccc2cc1Cn1cc(CSc2nnnn2-c2ccccc2)nn1`, the zone of inhibition at 5000 µg/mL in the assay with Pseudomonas aeruginosa [8], in the assay with Staphylococcus aureus [9], with Klebsiella pneumoniae [10] and in the assay on Escherichia coli [11] was 11 to 19 mm in each case.

Consider `CO/N=C(\C(=O)N[C@@H]1C(=O)N2C(C(=O)O)=C(CSc3nc(=O)c(O)nn3C)CS[C@H]12)c1csc(N)n1` [CEFTRIAXONE], for which the MIC in the assay on Bacillus subtilis [12], against Proteus vulgaris, with Salmonella typhimurium, in the assay with Streptococcus pneumoniae, with Proteus mirabilis [13] and against Prescottella equi was 0.063 to 8 µg/mL (≈ 0.114 to 14.4 µM) in each case. In addition, the MIC in the assay on Bacillus thuringiensis lay within 0.063 to 8 µg/mL (≈ 0.114 to 14.4 µM).

With `CCC(C)n1ncn(-c2ccc(N3CCN(c4ccc(OCC5COC(Cn6cncn6)(c6ccc(Cl)cc6Cl)O5)cc4)CC3)cc2)c1=O` (configuration not stated) [ITRACONAZOLE], the MIC in the assay on Escherichia coli [14], against Pseudomonas aeruginosa [15], against Klebsiella pneumoniae [16] and in the assay on Proteus mirabilis [17] was 6.25 µg/mL (≈ 8.86 µM) in each case.

With `C[C@H]1COc2c(N3CCN(C)CC3)c(F)cc3c(=O)c(C(=O)O)cn1c23.C[C@H]1COc2c(N3CCN(C)CC3)c(F)cc3c(=O)c(C(=O)O)cn1c23.O` [LEVOFLOXACIN], the “inhibition zone (IZ)” value with Escherichia coli [1], with Staphylococcus aureus [2] and in the assay with Bacillus cereus was 28 - 30 mm throughout.

Take `CCn1cc(C(=O)O)c(=O)c2cc(F)c(N3CCN(C)CC3)cc21` [PEFLOXACIN]: the zone of inhibition at 5000 µg/mL with Pseudomonas aeruginosa [8], in the assay with Staphylococcus aureus [9], in the assay with Klebsiella pneumoniae [10] and in the assay with Escherichia coli [11] was 28 to 36 mm in each case.

As for `CC1(C)S[C@@H]2[C@H](NC(=O)Cc3ccccc3)C(=O)N2[C@H]1C(=O)O` [PENICILLIN G], the MIC against Bacillus subtilis [12], against Proteus vulgaris, in the assay on Salmonella typhimurium, with Streptococcus pneumoniae, with Proteus mirabilis [13] and against Prescottella equi was 0.063 to 8 µg/mL (≈ 0.188 to 23.9 µM) throughout. For the same molecule, in the assay with Bacillus thuringiensis, the MIC fell in the range of 0.063 to 8 µg/mL (≈ 0.188 to 23.9 µM). In addition, the zone of inhibition at 5000 µg/mL in the assay on Staphylococcus aureus [18] came out at 24.6 mm; in the assay on Bacillus subtilis [19], 26.2 mm. The zone of inhibition at 100 µg/mL with Staphylococcus aureus [20] lay in the range of 10 to 24 mm.

Take `CN[C@@H]1[C@H](O[C@H]2[C@H](O[C@H]3[C@H](O)[C@@H](O)[C@H](N=C(N)N)[C@@H](O)[C@@H]3N=C(N)N)O[C@@H](C)[C@]2(O)C=O)O[C@@H](CO)[C@H](O)[C@H]1O` [STREPTOMYCIN]: the MIC against Escherichia coli [21] is 200 to 400 µg/mL (≈ 344 to 688 µM); with Pseudomonas aeruginosa [22], 200 to 400 µg/mL (≈ 344 to 688 µM); in the assay on Staphylococcus aureus [23], 200 to 400 µg/mL (≈ 344 to 688 µM); in the assay on Bacillus subtilis [12] it was 200 to 400 µg/mL (≈ 344 to 688 µM); in the assay with Bacillus subtilis [26], 10 µg/mL (≈ 17.2 µM); against Escherichia coli [27], 10 µg/mL (≈ 17.2 µM). For the same molecule, the MIC in the assay on Aspergillus niger [28] and against Candida albicans [29] was 10 µg/mL (≈ 17.2 µM) throughout. Besides, the zone of inhibition at 10 µg/mL in the assay on Escherichia coli [3], with Candida albicans [4], in the assay with Bacillus subtilis [5], in the assay on Lactococcus lactis, with Pseudomonas and in the assay with Streptomyces was 21 to 22 mm each time. The zone of inhibition at 10 µg/mL (in the assay on Aspergillus niger [6]; in the assay on Penicillium; in assay [7]) was 21 to 22 mm in each case. Further, the values for the zone of inhibition at 5000 µg/mL with Pseudomonas aeruginosa [24] and in the assay with Escherichia coli [25] were 20.6 mm and 26.9 mm, respectively.

Broadly, the MIC is the least concentration at which growth counts as inhibited. Higher therefore signals a need for much substance.

The values above are taken from ChEMBL document CHEMBL4342421, “Current scenario of tetrazole hybrids for antibacterial activity” (Eur J Med Chem, 2019).
